Experimental data: patent US4818761A, “2-(4-pyridylaminomethyl)-benzimidazole derivatives having antiviral activity” (priority 1986, dated 1989)
In brackets after ≈: the same amount, converted by molar mass.

Assays:
[1] = test system: coxsackievirus type B4 (CB4); test: Inhibition of CB4 cytopathogenic effect (CPE) in LLC-MK2 cells; type: cell-based; conditions: for IC50: Coxsackievirus, * Virus CPE inhibition assay, LLC-MK2 cells, 37° C.; for CI CB4 (C)/(A): CI = CD50 (LLC-MK2)/IC50 (virus CPE)
[2] = in vitro; conditions: human, hela cells
[3] = test system: enterovirus type 70 (EV70); test: Inhibition of EV70 cytopathogenic effect (CPE) in LLC-MK2 cells; type: cell-based; conditions: for IC50: Enterovirus D, * Virus CPE inhibition assay, LLC-MK2 cells, 33° C.; for CI EV70 (C)/(A): CI = CD50 (LLC-MK2)/IC50 (virus CPE)
[4] = test system: rhinovirus type 14 (HRV14); test: Inhibition of HRV14 cytopathogenic effect (CPE) in HeLa cells; type: cell-based; conditions: for IC50: Enterovirus, HRV14, * Virus CPE inhibition assay, HeLa cells, 33° C.; for CI HRV14 (D)/(B): CI = CD50 (HeLa)/IC50 (virus CPE)
[5] = in vitro; conditions: monkey, llc-mk2 cells
[6] = test system: coxsackievirus type B4 (CB4); test: Inhibition of CB4 plaque formation in LLC-MK2 cells; type: cell-based; conditions: for CI CB4 (C)/(A): CI = CD50 (LLC-MK2)/IC50 (plaque); for IC50: Coxsackievirus, plaque reduction, LLC-MK2 cells, 37° C.
[7] = test system: enterovirus type 70 (EV70); test: Inhibition of EV70 plaque formation in LLC-MK2 cells; type: cell-based; conditions: for CI EV70 (C)/(A): CI = CD50 (LLC-MK2)/IC50 (plaque); for IC50: Enterovirus D, plaque reduction, LLC-MK2 cells, 33° C.
[8] = test system: CB4 strain 637; test: Anti-coxsackievirus activity in vivo, CB4-induced hypoglycemia in SJL/J mice; conditions: single, daily intraperitoneal doses as low as 20 mg/kg, initiated 2 hr after infection and continued for 5 days
Method: Anti-coxsackievirus activity, in vivo. Compound No. XII and XXI were examined for its activity against CB4-induced hypoglycemia in SJL/J mice. […] Blood specimens were collected from the tail vein of each mouse before and 2, 3, 4 and 5 days after infection for assaying its plasma glucose levels. The differences in mean relative plasma glucose of uninfected control and compound-treated groups or placebo groups were evaluated by Student's t-test.

[9] = test system: rhinovirus type 14 (HRV14); test: Inhibition of HRV14 plaque formation in HeLa cells; type: cell-based; conditions: for IC50: Enterovirus, HRV14, plaque reduction, HeLa cells, 33° C.
[10] = test system: poliovirus type 2 (Polio2); test: microbe, parasite or virus in culture; type: cell-based; conditions: for CI Polio2 (C)/(A): CI = CD50 (LLC-MK2)/IC50 (plaque); for IC50: Enterovirus C, LLC-MK2, read-out: IC50 Polio2
[11] = Cytotoxicity, morphology of LLC-MK2 cells; conditions: monkey
[12] = Cytotoxicity, morphology of HeLa cells; conditions: human

SMILES	IC50 [1] [µg/mL]	CC50 [2] [µg/mL]	IC50 [3] [µg/mL]	IC50 [4] [µg/mL]	CC50 [5] [µg/mL]	CI EV70 (C)/(A) [3]	CI CB4 (C)/(A) [6]	IC50 [6] [µg/mL]	CI EV70 (C)/(A) [7]	IC50 [7] [µg/mL]	IC50 [9] [µg/mL]	IC50 [10] [µg/mL]	CC50 [11] [µg/mL]	further results
c1ccc2c(c1)nc(CNc1ccncc1)n2-c1nccs1 [LXXIII]	> 100	> 100	> 100	> 100	> 100									
CCc1cc2c(cc1Cl)nc(CNc1ccncc1)n2-c1ccccc1 [LXXV, 1-phenyl-2-(4-pyridylaminomethyl)-5-chloro-6-ethylbenzimidazole]	> 100	17.8 (≈ 49.1 µM)	> 56.2	5.6 (≈ 15.4 µM)	> 100	> 2								CI HRV14 (D)/(B) [4]: 3
CCCn1c(CNc2ccncc2)nc2ccccc21 [XII]					> 2000		> 4,255	0.47 (≈ 1.76 µM)	> 465	4.3 (≈ 16.1 µM)	> 50	3.6 (≈ 13.5 µM)		onset of CB4-induced hypoglycemia [8]: inhibited the onset of CB4-induced hypoglycemia; CI Polio2 (C)/(A) [10]: > 556
Cc1ccc2nc(CNc3ccncc3)n(-c3ccccc3)c2c1 [XLIII]	3.2 (≈ 10.2 µM)	> 100	17.8 (≈ 56.6 µM)	> 100	> 100	> 6								CI CB4 (C)/(A) [1]: > 31
CCc1ccc2c(c1)nc(CNc1ccncc1)n2-c1ccccc1 [XLIV]	6.8 (≈ 20.7 µM)	> 100	3.2 (≈ 9.74 µM)	17.8 (≈ 54.2 µM)	> 100	> 31								CI CB4 (C)/(A) [1]: > 15; CI HRV14 (D)/(B) [4]: > 6
Fc1ccc2nc(CNc3ccncc3)n(-c3ccccc3)c2c1 [XLVIII]	> 100		> 100										> 100	
Cc1cc2nc(CNc3ccncc3)[nH]c2cc1Br [XXVIII]							13	13.5 (≈ 42.6 µM)	88	2 (≈ 6.31 µM)	3.6 (≈ 11.3 µM)	34 (≈ 107 µM)	177 (≈ 557 µM)	CI HRV14 (D)/(B) ([9]; CI = CD50 (HeLa)/IC50 (plaque)): 15; CI Polio2 (C)/(A) [10]: 5; CC50 [12]: 56.2 µg/mL (≈ 177 µM)
COc1cc2nc(CNc3ccncc3)[nH]c2cc1Cl [XXXIII]			56.2 (≈ 195 µM)			> 2							> 100	
Cn1c(CNc2ccncc2)nc2cc(Cl)ccc21 [XXXVIII]							> 2	56 (≈ 205 µM)		115 (≈ 422 µM)	> 50	> 100	> 100	
CCc1ccc2c(c1)nc(CNc1ccncc1)n2C [XXXVII]								> 50	> 5	22 (≈ 82.6 µM)	20 (≈ 75.1 µM)	> 100	> 100	
